Laboratory results published in PubChem BioAssay (NCI).
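Step 1: Grow cells in 96-well plates. Step 2: Expose to compound for 48 hours at 5 concentrations. Step 3: Interpolate endpoints linearly; if unreached, use highest concentration. TGI: total growth inhibition.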

Assays:
Assay in all cases: NCI tumour cell line growth inhibition, 48 h
A549 NSCLC = test system: A549 NSCLC
OVCAR-4 ovarian = test system: OVCAR-4 ovarian
OVCAR-8 ovarian = test system: OVCAR-8 ovarian
MCF7 breast = test system: MCF7 breast
NCI-H226 lung = test system: NCI-H226 lung
SK-MEL-5 melanoma = test system: SK-MEL-5 melanoma
SNB-19 CNS = test system: SNB-19 CNS
MDA-MB-435 = test system: MDA-MB-435
COLO 205 colon = test system: COLO 205 colon
NCI/ADR-RES ovarian = test system: NCI/ADR-RES ovarian
TK-10 renal = test system: TK-10 renal
M14 melanoma = test system: M14 melanoma
HOP-62 NSCLC = test system: HOP-62 NSCLC
RXF 393 renal = test system: RXF 393 renal
UACC-257 melanoma = test system: UACC-257 melanoma
SK-OV-3 ovarian = test system: SK-OV-3 ovarian
CCRF-CEM leukemia = test system: CCRF-CEM leukemia
MALME-3M melanoma = test system: MALME-3M melanoma
LOX IMVI melanoma = test system: LOX IMVI melanoma
KM12 colon = test system: KM12 colon
ACHN renal = test system: ACHN renal
786-0 renal = test system: 786-0 renal
OVCAR-3 ovarian = test system: OVCAR-3 ovarian
U251 CNS = test system: U251 CNS
NCI-H460 lung = test system: NCI-H460 lung
A498 renal = test system: A498 renal
MOLT-4 leukemia = test system: MOLT-4 leukemia
DU-145 prostate = test system: DU-145 prostate
K-562 leukemia = test system: K-562 leukemia
CAKI-1 renal = test system: CAKI-1 renal
HCT-116 colon = test system: HCT-116 colon
SF-295 CNS = test system: SF-295 CNS
SNB-75 CNS = test system: SNB-75 CNS
HCC-2998 colon = test system: HCC-2998 colon
SF-268 CNS = test system: SF-268 CNS
MDA-N = test system: MDA-N
HOP-92 NSCLC = test system: HOP-92 NSCLC
OVCAR-5 ovarian = test system: OVCAR-5 ovarian
IGROV1 ovarian = test system: IGROV1 ovarian
HL-60(TB) leukemia = test system: HL-60(TB) leukemia
NCI-H522 lung = test system: NCI-H522 lung
SF-539 CNS = test system: SF-539 CNS
EKVX NSCLC = test system: EKVX NSCLC
SN12C renal = test system: SN12C renal
HCT-15 colon = test system: HCT-15 colon
HT29 colon = test system: HT29 colon
UO-31 renal = test system: UO-31 renal
PC-3 prostate = test system: PC-3 prostate
MDA-MB-231 breast = test system: MDA-MB-231 breast
T-47D breast = test system: T-47D breast
NCI-H23 lung = test system: NCI-H23 lung
SK-MEL-2 melanoma = test system: SK-MEL-2 melanoma
HS 578T breast = test system: HS 578T breast
SW-620 colon = test system: SW-620 colon
SK-MEL-28 melanoma = test system: SK-MEL-28 melanoma
RPMI-8226 leukemia = test system: RPMI-8226 leukemia

Measured: TGI

CC(C)(C)C(=O)C(C(=O)c1ccccc1)C(=O)C(C)(C)C
> 100 µM: all assays above
